Source: paper PMC9516332 (Frontiers in Oncology, 2022)
Read-outs that look alike come from different tables or passages of the source.

Tests used:
[1] = target: panel of 255 wild-type kinases (Homo sapiens, UniProt P51957); experiment: Kinase panel profiling at 1 µmol/L (MSA or IMAP), percentage inhibition; assay type: biochemical; conditions: read-out: %-inhibition, NEK4
[2] = target: panel of 255 wild-type kinases (Homo sapiens, UniProt P49761); experiment: as above; assay type: biochemical; conditions: read-out: %-inhibition at 1 µmol/L, CLK3
[3] = target: panel of 255 wild-type kinases (Homo sapiens, UniProt P41240); experiment: as above; assay type: biochemical; conditions: read-out: %-inhibition at 1 µmol/L, CSK
[4] = target: panel of 255 wild-type kinases (Homo sapiens, UniProt P19525); experiment: as above; assay type: biochemical; conditions: read-out: %-inhibition at 1 µmol/L, PKR
[5] = target: panel of 255 wild-type kinases (Homo sapiens, UniProt Q9H422); experiment: as above; assay type: biochemical; conditions: read-out: %-inhibition at 1 µmol/L, HIPK3
[6] = target: panel of 255 wild-type kinases (Homo sapiens, UniProt Q05655); experiment: as above; assay type: biochemical; conditions: read-out: %-inhibition at 1 µmol/L, PKCδ
[7] = target: panel of 255 wild-type kinases (Homo sapiens, UniProt Q13464); experiment: as above; assay type: biochemical; conditions: read-out: %-inhibition at 1 µmol/L, ROCK1
[8] = target: panel of 255 wild-type kinases (Homo sapiens, UniProt P27361); experiment: as above; assay type: biochemical; conditions: read-out: %-inhibition at 1 µmol/L, Erk1
[9] = NEK4, 1 µmol/L single concentration
[10] = kinase CLK3, 1 µmol/L single concentration
[11] = kinase CSK, 1 µmol/L single concentration
[12] = kinase PKR, 1 µmol/L single concentration
[13] = kinase HIPK3, 1 µmol/L single concentration
[14] = kinase PKCδ, 1 µmol/L single concentration
[15] = kinase ROCK1, 1 µmol/L single concentration
[16] = kinase Erk1, 1 µmol/L single concentration

Cc1nc(NC(=O)N2CCC[C@H]2C(N)=O)sc1-c1ccnc(C(C)(C)C(F)(F)F)c1 [alpelisib]
inhibition at 1 µM [1, 9]: -3% | inhibition at 1 µM [2, 10]: 22% | inhibition at 1 µM [3, 11]: -0.289% | inhibition at 1 µM [4, 12]: -1% | inhibition at 1 µM [5, 13]: 7% | inhibition at 1 µM [6, 14]: -7.56% | inhibition at 1 µM [7, 15]: -0.415% | inhibition at 1 µM [8, 16]: -0.813% | IC50 (134 cancer cell lines): 534 nM

Cn1cc(-c2cc3c(N4CCN(c5ncc([C@@](C)(N)c6ccc(F)cc6)cn5)CC4)ncnn3c2)cn1 [avapritinib]
inhibition at 1 µM [1, 9]: 12% | inhibition at 1 µM [2, 10]: 3.76% | inhibition at 1 µM [3, 11]: 2.57% | inhibition at 1 µM [4, 12]: 9% | inhibition at 1 µM [5, 13]: -0.071% | inhibition at 1 µM [6, 14]: 5% | inhibition at 1 µM [7, 15]: 2% | inhibition at 1 µM [8, 16]: -1.84%

Cn1cnc2c(F)c(Nc3ccc(Br)cc3F)c(C(=O)NOCCO)cc21 [binimetinib]
inhibition at 1 µM [1, 9]: -1.67% | inhibition at 1 µM [2, 10]: 0.514% | inhibition at 1 µM [3, 11]: -1.11% | inhibition at 1 µM [4, 12]: -11% | inhibition at 1 µM [5, 13]: 0.0241% | inhibition at 1 µM [6, 14]: -9% | inhibition at 1 µM [7, 15]: -7% | inhibition at 1 µM [8, 16]: -4.32%

CNC(=O)c1ccc(-c2cnc3ncc(Cc4ccc5ncccc5c4)n3n2)cc1F [capmatinib]
inhibition at 1 µM [1]: 2% | inhibition at 1 µM [2]: 8% | inhibition at 1 µM [3]: -9% | inhibition at 1 µM [4]: 7% | inhibition at 1 µM [5]: -3% | inhibition at 1 µM [6]: -10% | inhibition at 1 µM [7]: 1.06% | inhibition at 1 µM [8]: 2.84%

COc1cc2ncnc(Nc3ccc(F)c(Cl)c3)c2cc1NC(=O)/C=C/CN1CCCCC1 [dacomitinib]
inhibition at 1 µM [1, 9]: -2.15% | inhibition at 1 µM [2, 10]: 2.5% | inhibition at 1 µM [3, 11]: 18% | inhibition at 1 µM [4, 12]: 3.25% | inhibition at 1 µM [5, 13]: 3.75% | inhibition at 1 µM [6, 14]: 9% | inhibition at 1 µM [7, 15]: -2.68% | inhibition at 1 µM [8, 16]: 2.66% | IC50 (134 cancer cell lines): 18 nM

C[C@H](Nc1ncnc2nc[nH]c12)c1cc2cccc(Cl)c2c(=O)n1-c1ccccc1 [duvelisib]
inhibition at 1 µM [1, 9]: -2.34% | inhibition at 1 µM [2, 10]: 1.78% | inhibition at 1 µM [3, 11]: 1.86% | inhibition at 1 µM [4, 12]: 2.64% | inhibition at 1 µM [5, 13]: 3.5% | inhibition at 1 µM [6, 14]: 1.67% | inhibition at 1 µM [7, 15]: -4.36% | inhibition at 1 µM [8, 16]: 2.77% | IC50 (134 cancer cell lines): 4240 nM

COC(=O)N[C@@H](C)CNc1nccc(-c2cn(C(C)C)nc2-c2cc(Cl)cc(NS(C)(=O)=O)c2F)n1 [encorafenib]
inhibition at 1 µM [1, 9]: 4.44% | inhibition at 1 µM [2, 10]: 4.44% | inhibition at 1 µM [3, 11]: 1.58% | inhibition at 1 µM [5, 13]: 5.63% | inhibition at 1 µM [6, 14]: -2.67% | inhibition at 1 µM [7, 15]: 0.403% | inhibition at 1 µM [8, 16]: -0.942% | IC50 (134 cancer cell lines): 592 nM

CN1CCN(c2ccc(C(=O)Nc3n[nH]c4ccc(Cc5cc(F)cc(F)c5)cc34)c(NC3CCOCC3)c2)CC1 [entrectinib]
inhibition at 1 µM [1, 9]: 1.25% | inhibition at 1 µM [2, 10]: 3.46% | inhibition at 1 µM [3, 11]: 8% | inhibition at 1 µM [4, 12]: 3.49% | inhibition at 1 µM [5, 13]: 5% | inhibition at 1 µM [6, 14]: 8% | inhibition at 1 µM [7, 15]: 4.51% | inhibition at 1 µM [8, 16]: -0.529% | IC50 (134 cancer cell lines): 7820 nM

CCc1nc(C(N)=O)c(Nc2ccc(N3CCC(N4CCN(C)CC4)CC3)c(OC)c2)nc1NC1CCOCC1 [gilteritinib]
inhibition at 1 µM [1, 9]: 50% | inhibition at 1 µM [2, 10]: 7% | inhibition at 1 µM [3, 11]: 23% | inhibition at 1 µM [5, 13]: 66% | inhibition at 1 µM [6, 14]: 12% | inhibition at 1 µM [7, 15]: 60% | inhibition at 1 µM [8, 16]: 1.85% | IC50 (134 cancer cell lines): 237 nM

CCN1CCN(c2ccc(Nc3cc(N(C)C(=O)Nc4c(Cl)c(OC)cc(OC)c4Cl)ncn3)cc2)CC1 [infigratinib]
inhibition at 1 µM [1, 9]: 13% | inhibition at 1 µM [2, 10]: 12% | inhibition at 1 µM [3, 11]: 2.24% | inhibition at 1 µM [4, 12]: 76% | inhibition at 1 µM [5, 13]: -3.71% | inhibition at 1 µM [6, 14]: -3% | inhibition at 1 µM [7, 15]: 0.396% | inhibition at 1 µM [8, 16]: -4% | IC50 (134 cancer cell lines): > 3160 nM

O=C(Nc1cnn2ccc(N3CCC[C@@H]3c3cc(F)ccc3F)nc12)N1CC[C@H](O)C1 [larotrectinib]
inhibition at 1 µM [1, 9]: 0.695% | inhibition at 1 µM [2, 10]: -3.43% | inhibition at 1 µM [3, 11]: -5% | inhibition at 1 µM [4, 12]: -2.17% | inhibition at 1 µM [5, 13]: -4% | inhibition at 1 µM [6, 14]: -5% | inhibition at 1 µM [7, 15]: -5.36% | inhibition at 1 µM [8, 16]: -14% | IC50 (134 cancer cell lines): > 31600 nM

C[C@H]1Oc2cc(cnc2N)-c2c(nn(C)c2C#N)CN(C)C(=O)c2ccc(F)cc21 [lorlatinib]
inhibition at 1 µM [1, 9]: -0.571% | inhibition at 1 µM [2, 10]: 0.641% | inhibition at 1 µM [3, 11]: 1.12% | inhibition at 1 µM [4, 12]: 0.666% | inhibition at 1 µM [5, 13]: 0.506% | inhibition at 1 µM [6, 14]: 5% | inhibition at 1 µM [7, 15]: 3.64% | inhibition at 1 µM [8, 16]: 3%

CCN1C(=O)N(c2c(F)c(OC)cc(OC)c2F)Cc2cnc3[nH]c(CN4CCOCC4)cc3c21 [pemigatinib]
inhibition at 1 µM [1, 9]: 6.33% | inhibition at 1 µM [2, 10]: -1% | inhibition at 1 µM [3, 11]: 2.28% | inhibition at 1 µM [4, 12]: 85% | inhibition at 1 µM [5, 13]: 0.456% | inhibition at 1 µM [6, 14]: 0.471% | inhibition at 1 µM [7, 15]: -2.6% | inhibition at 1 µM [8, 16]: -8.52%

FC(F)(F)c1ccc(CNc2ccc(Cc3c[nH]c4ncc(Cl)cc34)cn2)cn1 [pexidartinib]
inhibition at 1 µM [1, 9]: 2.69% | inhibition at 1 µM [2, 10]: 18% | inhibition at 1 µM [3, 11]: 9% | inhibition at 1 µM [4, 12]: -10% | inhibition at 1 µM [5, 13]: 3.52% | inhibition at 1 µM [6, 14]: 6.48% | inhibition at 1 µM [7, 15]: 9% | inhibition at 1 µM [8, 16]: 2.66% | IC50 (134 cancer cell lines): > 31600 nM

CO[C@]1(C(=O)N[C@@H](C)c2ccc(-n3cc(F)cn3)nc2)CC[C@H](c2nc(C)cc(Nc3cc(C)[nH]n3)n2)CC1 [pralsetinib]
inhibition at 1 µM [1, 9]: 2.56% | inhibition at 1 µM [2, 10]: 9% | inhibition at 1 µM [3, 11]: 0.35% | inhibition at 1 µM [4, 12]: 8% | inhibition at 1 µM [5, 13]: 9% | inhibition at 1 µM [6, 14]: -3% | inhibition at 1 µM [7, 15]: 3.43% | inhibition at 1 µM [8, 16]: -3% | IC50 (134 cancer cell lines): 2640 nM

CCn1c(=O)c(-c2cc(NC(=O)Nc3ccccc3)c(F)cc2Br)cc2cnc(NC)cc21 [ripretinib]
inhibition at 1 µM [1, 9]: 19% | inhibition at 1 µM [2, 10]: -7% | inhibition at 1 µM [3, 11]: 50% | inhibition at 1 µM [4, 12]: -6% | inhibition at 1 µM [5, 13]: 4% | inhibition at 1 µM [6, 14]: 54% | inhibition at 1 µM [7, 15]: -2.14% | inhibition at 1 µM [8, 16]: 2.79%

COc1ccc(CN2C3CC2CN(c2ccc(-c4cc(OCC(C)(C)O)cn5ncc(C#N)c45)cn2)C3)cn1 [selpercatinib]
inhibition at 1 µM [1, 9]: 0.858% | inhibition at 1 µM [2, 10]: 0.425% | inhibition at 1 µM [3, 11]: 1.77% | inhibition at 1 µM [4, 12]: 0.94% | inhibition at 1 µM [5, 13]: -3% | inhibition at 1 µM [6, 14]: -2% | inhibition at 1 µM [7, 15]: 3.51% | inhibition at 1 µM [8, 16]: -7.44% | IC50 (134 cancer cell lines): 3850 nM

Cn1cnc2c(F)c(Nc3ccc(Br)cc3Cl)c(C(=O)NOCCO)cc21 [selumetinib]
inhibition at 1 µM [1, 9]: 3.45% | inhibition at 1 µM [2, 10]: 7.48% | inhibition at 1 µM [3, 11]: 0.0795% | inhibition at 1 µM [4, 12]: 1.47% | inhibition at 1 µM [5, 13]: 3% | inhibition at 1 µM [6, 14]: -4.35% | inhibition at 1 µM [7, 15]: -1.15% | inhibition at 1 µM [8, 16]: -4.67% | IC50 (134 cancer cell lines): 99 nM

Cc1cc(Nc2ncnc3ccc(NC4=NC(C)(C)CO4)cc23)ccc1Oc1ccn2ncnc2c1 [tucatinib]
inhibition at 1 µM [1, 9]: 2.39% | inhibition at 1 µM [2, 10]: 5.42% | inhibition at 1 µM [3, 11]: 6% | inhibition at 1 µM [4, 12]: 3.37% | inhibition at 1 µM [5, 13]: 2.27% | inhibition at 1 µM [6, 14]: 2.67% | inhibition at 1 µM [7, 15]: -0.767% | inhibition at 1 µM [8, 16]: -2.6% | IC50 (134 cancer cell lines): 6880 nM

C=CC(=O)N1CCC([C@@H]2CCNc3c(C(N)=O)c(-c4ccc(Oc5ccccc5)cc4)nn32)CC1 [zanubrutinib]
inhibition at 1 µM [1, 9]: 1% | inhibition at 1 µM [2, 10]: -3.73% | inhibition at 1 µM [4, 12]: -1.41% | inhibition at 1 µM [5, 13]: -2.42% | inhibition at 1 µM [6, 14]: -6% | inhibition at 1 µM [7, 15]: -1.57% | inhibition at 1 µM [8, 16]: -9%
